Calls of active or inactive are those of the source. The calls are words filed in the database; no cut-off is given here.
Experiments:
[1] = Inhibition of Enterococcus fecalis thymidylate synthase using MTHF and dUMP as substrates; parameters: species or system Enterococcus faecalis
[2] = Inhibition of Escherichia coli thymidylate synthase using MTHF and dUMP as substrates
Thymidylate synthase [3] = molecular target: T1, Thymidylate synthase (Pneumocystis carinii, UniProt P13100); assay: Inhibition of Pneumocystis carinii thymidylate synthase using MTHF and dUMP as substrates
T1 sequence (P13100 whole entry): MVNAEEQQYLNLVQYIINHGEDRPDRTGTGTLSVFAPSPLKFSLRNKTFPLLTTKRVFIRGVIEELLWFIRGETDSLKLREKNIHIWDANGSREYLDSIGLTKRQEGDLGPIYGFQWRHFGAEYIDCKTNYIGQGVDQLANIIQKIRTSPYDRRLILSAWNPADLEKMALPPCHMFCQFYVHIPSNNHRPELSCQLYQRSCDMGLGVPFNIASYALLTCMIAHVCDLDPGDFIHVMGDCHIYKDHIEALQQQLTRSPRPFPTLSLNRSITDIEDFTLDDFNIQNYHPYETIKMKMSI

Thymidylate synthase [4] = molecular target: T2, Thymidylate synthase (Lactobacillus casei, UniProt P00469); assay: Inhibition of Lactobacillus casei thymidylate synthase using MTHF and dUMP as substrates; parameters: species or system Lacticaseibacillus casei
T2 sequence (P00469 whole entry): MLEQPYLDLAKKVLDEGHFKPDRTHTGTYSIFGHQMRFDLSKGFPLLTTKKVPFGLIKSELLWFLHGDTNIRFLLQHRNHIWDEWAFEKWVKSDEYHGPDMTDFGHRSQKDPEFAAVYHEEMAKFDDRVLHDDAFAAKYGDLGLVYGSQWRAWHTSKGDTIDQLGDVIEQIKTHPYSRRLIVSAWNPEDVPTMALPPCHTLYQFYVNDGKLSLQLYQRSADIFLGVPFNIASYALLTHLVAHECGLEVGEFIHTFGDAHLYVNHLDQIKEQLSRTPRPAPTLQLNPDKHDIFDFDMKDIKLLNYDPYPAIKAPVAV

[5] = molecular target: T3, Thymidylate synthase (Pneumocystis carinii) (UniProt P13100); assay: Inhibition of Pneumocystis carinii thymidylate synthase using MTHF and dUMP as substrates at 100 uM
T3 sequence (whole entry): T1 sequence (P13100 whole entry)

[6] = molecular target: Thymidylate synthase (Homo sapiens) (UniProt P04818); assay: Inhibition of human thymidylate synthase using MTHF and dUMP as substrates at 100 uM
Escherichia coli = assay: Inhibition of Escherichia coli thymidylate synthase using MTHF and dUMP as substrates at 100 uM
Enterococcus faecalis = assay: Inhibition of Enterococcus fecalis thymidylate synthase using MTHF and dUMP as substrates at 100 uM
[7] = molecular target: T4, Thymidylate synthase (Lactobacillus casei) (UniProt P00469); assay: Inhibition of Lactobacillus casei thymidylate synthase using MTHF and dUMP as substrates at 100 uM; details: Lacticaseibacillus casei
T4 sequence (whole entry): T2 sequence (P00469 whole entry)

Chain of Thymidylate synthase (Homo sapiens) (P04818 2-313 limits assumed): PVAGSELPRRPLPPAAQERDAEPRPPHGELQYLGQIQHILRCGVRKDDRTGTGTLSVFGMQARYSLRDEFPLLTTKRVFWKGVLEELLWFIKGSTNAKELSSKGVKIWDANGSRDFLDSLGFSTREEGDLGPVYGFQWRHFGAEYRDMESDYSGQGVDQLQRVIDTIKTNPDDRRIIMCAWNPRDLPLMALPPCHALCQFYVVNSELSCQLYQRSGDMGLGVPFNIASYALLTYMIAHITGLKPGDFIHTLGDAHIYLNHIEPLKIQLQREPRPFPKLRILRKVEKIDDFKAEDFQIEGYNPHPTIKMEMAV

| SMILES | Ki [1] | Ki (Thymidylate synthase [3]) | Ki (Thymidylate synthase [4]) | inhibition [5] | inhibition [6] | inhibition (Escherichia coli) | inhibition (Enterococcus faecalis) | inhibition [7] | Ki [2] |
| --- | --- | --- | --- | --- | --- | --- | --- | --- | --- |
| CCOC(=O)Oc1ccc2c3c(cccc13)C(=O)O2 | 37 µM | 34 µM | 10 µM | – | – | – | – | – | 67 µM |
| O=C(Oc1ccc2c3c(cccc13)C(=O)O2)c1ccco1 | 20 µM | 15 µM | 13 µM | – | – | inactive | – | – | – |
| O=C(Oc1ccc2c3c(cccc13)C(=O)O2)c1ccc2c(c1)OCO2 | – | – | – | inactive | inactive | inactive | inactive | inactive | – |
| C=CC(=O)Oc1ccc2c3c(cccc13)C(=O)O2 | 41 µM | 19 µM | 10 µM | – | – | – | – | – | – |
| O=C1Oc2ccc(OC(=O)C3CCCCC3)c3cccc1c23 | – | 18 µM | 49 µM | – | inactive | – | inactive | – | 66 µM |
| O=C(Oc1ccc2c3c(cccc13)C(=O)O2)c1cccc(C(F)(F)F)c1 | 41 µM | – | 33 µM | inactive | inactive | inactive | – | – | – |
| O=C(Oc1ccc2c3c(cccc13)C(=O)O2)c1ccc(SC(F)(F)F)cc1 | – | – | – | inactive | inactive | inactive | inactive | inactive | – |

More lines, in order of falling Ki (Thymidylate synthase [4]), values ahead:

| Ki [1] | Ki (Thymidylate synthase [3]) | Ki (Thymidylate synthase [4]) | inhibition [5] | inhibition [6] | inhibition (Escherichia coli) | inhibition (Enterococcus faecalis) | inhibition [7] | SMILES | Ki [2] |
| --- | --- | --- | --- | --- | --- | --- | --- | --- | --- |
| – | – | 9 µM | inactive | inactive | inactive | inactive | – | CC(C)COC(=O)Oc1ccc2c3c(cccc13)C(=O)O2 | – |
| – | 10 µM | 6 µM | – | inactive | inactive | inactive | – | C/C=C/C(=O)Oc1ccc2c3c(cccc13)C(=O)O2 | – |
| 27 µM | 3.5 µM | 1.2 µM | – | – | – | – | – | O=C(Oc1ccc2c3c(cccc13)C(=O)O2)c1ccc([N+](=O)[O-])cc1 | 6 µM |
| 14 µM | 0.31 µM | 0.39 µM | – | – | – | – | – | N#Cc1cccc(C(=O)Oc2ccc3c4c(cccc24)C(=O)O3)c1 | 4 µM |
